# Results taken from patent publication US8236769B2, “Agent for improving insulin resistance” (Morinaga Milk Industry Co., Ltd., priority 2005, dated 2012).
# What was measured:
# TNF-α = experiment: Production quantity of TNF-α of epididymal adipose tissue from treated ZDF rats (culture supernatant, ELISA); assay type: in vivo, rat; conditions: 45th day
# Description: (§1) In Example 2, the same Test Sample and the negative sample as those prepared in Example 1 were used.
# (§2) After 1 hour of the culture, culture supernatants were collected, and concentrations of TNF-α and MCP-1 in the culture supernatants were measured by ELISA method (Biosource).
# MCP-1 = experiment: Production quantity of MCP-1 of epididymal adipose tissue from treated ZDF rats (culture supernatant, ELISA); assay type: in vivo, rat; conditions: 45th day
# Description: as §1, §2
# [1] = tested on: ZDF (Zucker Diabetic Fatty) rats; experiment: Insulin tolerance test in ZDF rats; assay type: in vivo, rat; conditions: 35th day; 37.5 μg/kg orally once a day; human insulin 10 U/Kg i.p. after 4 hours fasting; 15 to 60 minutes after insulin; FIG. 1
# Description: In Example 3, the same Test Sample and the negative sample as those prepared in Examples 1 and 2 were used.
# The semice were divided into groups, each consisting of 6 rats. […] In the present example, the insulin tolerance test was performed in such a manner that: the rats were fasted for 4 hours, and were then intraperitoneally administered with 10 U/Kg of body weight of a human insulin (Eli Lily and Company); and changes with time in blood glucose level were measured from the initiation of the administration of the insulin to after 60 minutes later.
# [2] = tested on: ZDF (Zucker Diabetic Fatty) rats; conditions: serum
# Description: 3-O-β-D-glucopyranosyl-4-methylergost-7-en-3-ol produced in Preparation Example 1 was dissolved in DMSO, and the concentration was adjusted to 15 μg/ml with distilled water to thereby prepare Test Sample. In this case, the final DMSO concentration was adjusted to 0.2%. Furthermore, a solution without the test samples was prepared as a negative sample.
# 6-week-old male ZDF rats (purchased from Charles River Laboratories, Inc., USA) were preliminarily fed with a high-fat diet (Research Diet, Inc.) for 1 month. These rats were divided into groups, each consisting of 6 rats. Each of the groups of rats was orally administered with 1 ml per 400 g of body weight (37.5 μg/kg of body weight) of the Test Sample or the negative sample once a day everyday with a sonde. On the 45th day from the initiation of the administration of the samples, blood was collected from the rats under fasting, and the level of the free fatty acid in serum were measured by using NEFA C-test Wako (Wako Pure Chemical Industries, Ltd.).
# [3] = WO 2006/035525; cited from earlier work
# [4] = adipose tissue, Tukey-Kramer's test
# [5] = culture supernatant of epididymal fat tissue after 1 hour at 37° C., 37.5 μg/kg orally once a day
smiles,measurement,setting,value
"CC1C(O[C@@H]2O[C@H](CO)[C@@H](O)[C@H](O)[C@H]2O)CC[C@@]2(C)C1CC=C1[C@@H]3CC[C@H]([C@H](C)CC[C@H](C)C(C)C)[C@@]3(C)CC[C@@H]12 (stereo partly drawn) [Test Sample, 3-O-β-D-glucopyranosyl-4-methylergost-7-en-3-ol]",inhibitory effect on the production of TNF-α compared with negative sample group,TNF-α; [4],significant inhibitory effects
same,TNF-α,TNF-α; [5],117.4 ± 47.9 pg/mL
same,inhibitory effect on the production of MCP-1 compared with negative sample group,MCP-1; [4],significant inhibitory effects
same,MCP-1,MCP-1; [5],23.3 ± 3.6 pg/mL
same,blood glucose level in insulin tolerance test compared with negative sample group,[1],lower blood glucose levels
same,free fatty acid levels compared with the group administered with the negative sample,"[2]; 45th day, 37.5 μg/kg orally once a day, decreased to this % of negative sample group",53%
same,Free fatty acid,"[2]; fasting, 45th day of administration, 37.5 μg/kg of body weight orally once a day, male ZDF rats on high-fat diet",1.948 ± 0.648 mEq/l
same,effect on hemoglobin Alc level,[3],decreasing hemoglobin Alc level
same,effect on hyperglycemia,[3],improving hyperglycemia
